Patent publication US20240269139A1, “COMPOUNDS FOR TARGETED PROTEIN DEGRADATION OF KINASES” (DANA-FARBER CANCER INSTITUTE, INC., priority 2020, published 2024)
Entries after “also recorded” stand apart in the source; their conditions may differ. Like-named read-outs stand apart in the source and are kept apart here.

Legend:
[1] = biological target: protein kinases (human kinome) (Homo sapiens, UniProt Q00537); type: cell-based
[2] = test system: protein kinases (human kinome); type: cell-based; conditions: for logFC GSK3B: experiment wp017
[3] = test system: protein kinases in MOLT-4 cells; assay: Whole cell quantitative proteomics in MOLT-4 cells; conditions: MOLT-4, 1 μM, 5 h (FIG. 1J)
Experimental: Whole cell multiplexed quantitative proteomics was employed to measure changes in abundance of the proteome in response to treatment with each of the kinase degrader molecules relative to DMSO (Table 1, Appendix I).
Cells were treated with DMSO (biological triplicate) or degrader at indicated dose and time and cells were harvested by centrifugation. […] Precipitated protein was resuspended in 4 M Urea, 50 mM HEPES pH 7.4, followed by dilution to 1 M urea with the addition of 200 mM EPPS, pH 8. Proteins were first digested with LysC (1:50: enzyme:protein) for 12 hours at room temperature. The LysC digestion was diluted to 0.5 M Urea with 200 mM EPPS pH 8 followed by digestion with trypsin (1:50; enzyme:protein) for 6 hours at 37° C. Tandem mass tag (TMT) reagents (Thermo Fisher Scientific) were dissolved in anhydrous acetonitrile (ACN) according to manufacturer's instructions. […] The 10, 11, or 16-plex labeling reactions were performed for 1.5 hours at room temperature and the reaction quenched by the addition of hydroxylamine to a final concentration of 0.3% for 15 minutes at room temperature. The sample channels were combined at a 1:1 ratio, desalted using C18 solid phase extraction cartridges (Waters®) and analyzed by LC-MS for channel ratio comparison. Samples were then combined using the adjusted volumes determined in the channel ratio analysis and dried down in a speed vacuum. The combined sample was then resuspended in 1% formic acid, and acidified (pH 2-3) before being subjected to desalting with C18 SPE (Sep-Pak®, Waters®). Samples were then offline fractionated into 96 fractions by high pH reverse-phase HPLC (Agilent® LC1260) through an aeris peptide xb-c18 column (Phenomenex®) with mobile phase A containing 5% acetonitrile and 10 mM NH4HCO3 in LC-MS grade H2O, and mobile phase B containing 90% acetonitrile and 10 mM NH4HCO3 in LC-MS grade H2O (both pH 8.0). The 96 resulting fractions were then pooled in a non-continuous manner into 24 fractions and desalted using C18 solid phase extraction plates (SOLA®, Thermo Fisher Scientific) followed by subsequent mass spectrometry analysis.
Data were collected using an Orbitrap Fusion™ Lumos™ mass spectrometer (Thermo Fisher Scientific, San Jose, CA, USA) coupled with a Proxeon EASY-nLC™ 1200 LC pump (Thermo Fisher Scientific) or an Orbitrap Eclipse™ Tribrid™ mass spectrometer (Thermo Fisher Scientific, San Jose, CA, USA) coupled with an UltiMate™ 3000 RSLCnano System. Peptides were separated on an EasySpray™ ES803a/ES803a.rev2 75 μm inner diameter microcapillary column (ThermoFisher Scientific).
Data dependent MS2 spectra were acquired in the ion trap with a normalized collision energy (NCE) set at 35%, AGC target set to 1.8×10^4 and a maximum injection time of 120 ms. MS3 scans were acquired in the Orbitrap with HCD collision energy set to 55%. AGC target set to 2×10^5, maximum injection time of 150 ms, resolution at 50,000 and with a maximum synchronous precursor selection (SPS) precursors set to 10.
Proteome Discoverer™ 2.1, 2.2 or 2.4 (Thermo Fisher Scientific) was used for .RAW file processing and controlling peptide and protein level false discovery rates, assembling proteins from peptides, and protein quantification from peptides.

[4] = biological target: T1, protein kinases (human kinome) (Homo sapiens, UniProt Q13043); type: cell-based
T1 sequence (Q13043 1-487): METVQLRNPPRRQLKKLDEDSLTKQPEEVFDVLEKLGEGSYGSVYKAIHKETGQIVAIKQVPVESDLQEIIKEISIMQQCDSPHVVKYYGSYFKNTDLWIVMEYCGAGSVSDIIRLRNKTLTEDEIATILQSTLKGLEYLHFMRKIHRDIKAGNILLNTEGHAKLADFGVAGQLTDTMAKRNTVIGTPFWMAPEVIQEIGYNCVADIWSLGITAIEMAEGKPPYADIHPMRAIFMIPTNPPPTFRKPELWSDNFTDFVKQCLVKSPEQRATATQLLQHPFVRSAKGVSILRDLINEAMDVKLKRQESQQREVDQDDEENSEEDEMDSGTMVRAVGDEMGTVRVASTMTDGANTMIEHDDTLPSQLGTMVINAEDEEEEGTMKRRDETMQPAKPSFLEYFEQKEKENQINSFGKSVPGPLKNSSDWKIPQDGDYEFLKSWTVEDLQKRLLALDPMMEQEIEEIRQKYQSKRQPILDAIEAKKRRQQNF

[5] = biological target: protein kinases (human kinome) (Homo sapiens, UniProt O94921); type: cell-based
Sequence of protein kinases (human kinome) (Homo sapiens, UniProt O94921) (O94921 whole entry): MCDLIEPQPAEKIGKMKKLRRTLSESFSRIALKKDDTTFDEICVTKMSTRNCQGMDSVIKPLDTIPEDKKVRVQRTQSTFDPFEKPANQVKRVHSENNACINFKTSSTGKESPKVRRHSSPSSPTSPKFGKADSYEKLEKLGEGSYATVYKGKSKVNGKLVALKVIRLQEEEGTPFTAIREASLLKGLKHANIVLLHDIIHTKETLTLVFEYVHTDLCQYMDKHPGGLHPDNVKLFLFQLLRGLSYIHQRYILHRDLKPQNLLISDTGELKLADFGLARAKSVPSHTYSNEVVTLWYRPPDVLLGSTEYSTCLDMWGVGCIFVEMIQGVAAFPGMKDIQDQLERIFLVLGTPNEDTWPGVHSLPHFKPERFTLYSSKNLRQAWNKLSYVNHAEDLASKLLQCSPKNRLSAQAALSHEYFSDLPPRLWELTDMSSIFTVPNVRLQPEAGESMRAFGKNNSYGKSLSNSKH

[6] = biological target: T2, protein kinases (human kinome) (Homo sapiens, UniProt Q8TBX8); type: cell-based; conditions: PIP4K2C Q8TBX8-1; experiment wp017
T2 sequence (Q8TBX8 1-421): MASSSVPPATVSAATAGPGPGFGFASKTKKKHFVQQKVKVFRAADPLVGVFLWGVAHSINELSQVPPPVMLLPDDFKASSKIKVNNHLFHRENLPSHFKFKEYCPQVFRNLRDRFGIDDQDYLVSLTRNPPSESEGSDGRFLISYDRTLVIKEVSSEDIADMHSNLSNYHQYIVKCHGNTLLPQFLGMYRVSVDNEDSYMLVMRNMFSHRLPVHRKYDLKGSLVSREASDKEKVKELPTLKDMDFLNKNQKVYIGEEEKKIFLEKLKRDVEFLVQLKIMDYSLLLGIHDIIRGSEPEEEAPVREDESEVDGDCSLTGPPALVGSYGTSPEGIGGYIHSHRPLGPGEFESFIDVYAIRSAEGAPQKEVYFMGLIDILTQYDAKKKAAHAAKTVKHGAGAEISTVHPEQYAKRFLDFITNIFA

[7] = biological target: T3, protein kinases (human kinome) (Homo sapiens, UniProt O94768); type: cell-based
T3 sequence (O94768 1-372): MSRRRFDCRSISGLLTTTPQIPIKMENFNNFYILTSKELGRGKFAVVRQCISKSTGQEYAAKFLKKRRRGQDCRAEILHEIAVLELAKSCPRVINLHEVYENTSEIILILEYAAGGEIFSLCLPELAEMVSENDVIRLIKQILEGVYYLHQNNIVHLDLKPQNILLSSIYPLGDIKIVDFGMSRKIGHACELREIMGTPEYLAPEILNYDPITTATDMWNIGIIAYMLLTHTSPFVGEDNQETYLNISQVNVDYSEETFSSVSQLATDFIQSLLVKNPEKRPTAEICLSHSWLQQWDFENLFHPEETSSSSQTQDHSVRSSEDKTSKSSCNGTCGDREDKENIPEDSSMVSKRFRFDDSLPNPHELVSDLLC

[8] = biological target: T4, protein kinases (human kinome) (Homo sapiens, UniProt O60285); type: cell-based; conditions: NUAK1 (O60285), experiment wp017
T4 sequence (O60285 1-661): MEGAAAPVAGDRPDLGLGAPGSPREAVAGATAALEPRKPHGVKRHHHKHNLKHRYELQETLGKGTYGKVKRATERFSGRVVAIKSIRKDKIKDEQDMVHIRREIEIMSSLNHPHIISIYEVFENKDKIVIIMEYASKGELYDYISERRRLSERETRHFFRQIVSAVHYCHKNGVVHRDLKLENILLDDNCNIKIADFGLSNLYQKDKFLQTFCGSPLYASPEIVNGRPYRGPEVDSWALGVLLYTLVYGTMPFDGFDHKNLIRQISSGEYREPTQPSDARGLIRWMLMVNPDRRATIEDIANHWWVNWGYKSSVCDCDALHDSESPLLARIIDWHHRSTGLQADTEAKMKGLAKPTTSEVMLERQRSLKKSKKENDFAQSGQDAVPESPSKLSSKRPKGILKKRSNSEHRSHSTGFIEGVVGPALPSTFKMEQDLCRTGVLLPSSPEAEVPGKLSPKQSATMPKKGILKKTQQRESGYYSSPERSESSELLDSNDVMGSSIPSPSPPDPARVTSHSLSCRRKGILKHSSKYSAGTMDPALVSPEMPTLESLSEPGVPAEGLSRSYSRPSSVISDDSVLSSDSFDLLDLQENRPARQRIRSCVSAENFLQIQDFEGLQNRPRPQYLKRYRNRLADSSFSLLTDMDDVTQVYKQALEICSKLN

[9] = biological target: protein kinases (human kinome) (Homo sapiens, UniProt Q9P1W9); type: cell-based
Sequence of protein kinases (human kinome) (Homo sapiens, UniProt Q9P1W9) (Q9P1W9 whole entry): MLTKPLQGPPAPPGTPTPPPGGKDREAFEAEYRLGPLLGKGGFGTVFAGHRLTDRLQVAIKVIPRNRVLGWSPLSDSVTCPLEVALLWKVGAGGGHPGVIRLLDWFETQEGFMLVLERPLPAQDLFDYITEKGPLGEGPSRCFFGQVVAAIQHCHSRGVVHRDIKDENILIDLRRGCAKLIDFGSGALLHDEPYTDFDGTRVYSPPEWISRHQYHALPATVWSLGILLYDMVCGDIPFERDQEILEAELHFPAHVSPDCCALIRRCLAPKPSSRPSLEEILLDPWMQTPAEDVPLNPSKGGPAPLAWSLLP

[10] = biological target: protein kinases (human kinome) (Homo sapiens, UniProt P48730); type: cell-based
Sequence of protein kinases (human kinome) (Homo sapiens, UniProt P48730) (P48730 whole entry): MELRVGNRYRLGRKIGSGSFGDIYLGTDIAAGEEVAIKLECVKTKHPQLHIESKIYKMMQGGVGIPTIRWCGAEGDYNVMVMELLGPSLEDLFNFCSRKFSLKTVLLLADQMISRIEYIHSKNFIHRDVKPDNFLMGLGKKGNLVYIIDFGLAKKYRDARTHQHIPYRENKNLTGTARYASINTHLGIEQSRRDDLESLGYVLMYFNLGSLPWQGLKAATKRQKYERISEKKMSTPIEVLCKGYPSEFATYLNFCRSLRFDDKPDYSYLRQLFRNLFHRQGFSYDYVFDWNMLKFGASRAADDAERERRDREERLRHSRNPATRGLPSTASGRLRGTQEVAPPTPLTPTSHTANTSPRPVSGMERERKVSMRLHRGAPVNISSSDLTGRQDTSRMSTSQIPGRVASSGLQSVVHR

[11] = biological target: protein kinases (human kinome) (Homo sapiens, UniProt P49840); type: cell-based; conditions: GSK3A P49840; experiment wp017
Sequence of protein kinases (human kinome) (Homo sapiens, UniProt P49840) (P49840 whole entry): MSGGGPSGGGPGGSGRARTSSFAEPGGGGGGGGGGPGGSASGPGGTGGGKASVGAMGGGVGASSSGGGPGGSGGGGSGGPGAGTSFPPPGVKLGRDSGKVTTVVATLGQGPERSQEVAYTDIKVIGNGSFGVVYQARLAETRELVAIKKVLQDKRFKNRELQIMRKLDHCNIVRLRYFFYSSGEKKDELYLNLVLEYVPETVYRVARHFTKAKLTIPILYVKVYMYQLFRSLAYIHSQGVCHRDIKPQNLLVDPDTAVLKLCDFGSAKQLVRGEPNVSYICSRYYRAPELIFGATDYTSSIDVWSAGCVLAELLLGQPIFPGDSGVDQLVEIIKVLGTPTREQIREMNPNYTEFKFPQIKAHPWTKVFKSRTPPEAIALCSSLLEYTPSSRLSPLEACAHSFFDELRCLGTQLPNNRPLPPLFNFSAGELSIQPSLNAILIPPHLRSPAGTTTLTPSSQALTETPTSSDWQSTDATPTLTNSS

Sequence of protein kinases (human kinome) (Homo sapiens, UniProt Q00537) (Q00537 whole entry): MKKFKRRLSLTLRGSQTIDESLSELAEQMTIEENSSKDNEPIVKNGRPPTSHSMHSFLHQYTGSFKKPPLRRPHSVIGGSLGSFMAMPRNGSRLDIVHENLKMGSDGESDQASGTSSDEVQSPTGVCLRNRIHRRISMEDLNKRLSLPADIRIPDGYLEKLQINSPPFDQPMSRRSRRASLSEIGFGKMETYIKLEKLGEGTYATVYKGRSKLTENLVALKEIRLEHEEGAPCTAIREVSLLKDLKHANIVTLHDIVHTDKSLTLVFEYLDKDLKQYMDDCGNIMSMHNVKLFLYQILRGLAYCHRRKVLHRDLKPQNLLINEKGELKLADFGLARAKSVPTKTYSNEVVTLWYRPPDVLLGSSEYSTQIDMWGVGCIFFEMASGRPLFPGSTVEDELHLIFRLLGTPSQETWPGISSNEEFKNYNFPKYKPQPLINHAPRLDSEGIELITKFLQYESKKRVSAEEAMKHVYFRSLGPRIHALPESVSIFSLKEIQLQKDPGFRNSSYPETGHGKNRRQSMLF

For Cc1ncsc1-c1ccc([C@H](C)NC(=O)[C@@H]2C[C@@H](O)CN2C(=O)[C@@H](NC(=O)CCOCCOCCNc2nccc(-c3sc(C(C)(C)C)nc3-c3cccc(NS(=O)(=O)c4c(F)cccc4F)c3F)n2)C(C)(C)C)cc1 [DD-03-156, (2S,4R)-1-((S)-2-(3-(2-(2-((4-(2-(tert-butyl)-4-(3-((2,6-difluorophenyl)sulfonamido)-2-fluorophenyl)thiazol-5-yl)pyrimidin-2-yl)amino)ethoxy)ethoxy)propanamido)-3,3-dimethylbutanoyl)-4-hydroxy-N—((S)-1-(4-(4-methylthiazol-5-yl)phenyl)ethyl)pyrrolidine-2-2377 carboxamide], the “preference for degrading CDK17” value [1] was “strong preference for degrading CDK17”, the “kinases the bifunctional compound degrades” value ([2]; as stated for the structure in the embodiments) was “CDK17, LIMK1, and LIMK2” and the Kinase hits ([2]; kinases significantly downregulated vs DMSO (fold change cutoff −1.25, P-value<0.01), ≤8 h, 0.1-5 μM degrader, 7 cell lines) was “CDK17, LIMK1, LIMK2”. For the same molecule, the “Total no. kinase hits” value ([2]; number of degraded kinases per library compound) was 3 and the “degradation profile (potency and selectivity)” value [3] was “potent and selective degradation of only CDK17 and LIMK2; also recorded: exquisite”.
For Nc1ncc(-c2ccc(S(=O)(=O)N(CCCNC(=O)CCOCCOCCOCCOCCOCCNc3cccc4c3C(=O)N(C3CCC(=O)NC3=O)C4=O)C3CC3)cc2F)cc1-c1ccc2c(c1)CCNC2=O (stereo not shown) [WH.9533.153], the “logFC of STK4 (Q13043-1)” value ([4]; Experiment wp017) was −0.4936, the logFC ([4]; STK4 (Q13043-1), experiment wp017) was −0.4936 and the logFC ([5]; CDK14 (O94921-1), experiment wp017) was −0.4637. For the same molecule, the “logFC of CDK14 (O94921-1)” value ([5]; Experiment wp017) was −0.4637, the “logFC GSK3B” value ([2]; Accession P49841-2, direction down) was −1.317 and the “logFC GSK3B” value ([2]; GSK3B P49841-2) was −1.317. For the same molecule, the logFC [6] was −0.7144, the “logFC STK17B (O94768)” value ([7]; Experiment wp017, direction down) was −0.7595 and the logFC ([7]; STK17B (O94768), experiment wp017) was −0.7595. For the same molecule, the logFC [8] was −1.367, the logFC ([8]; direction down) was −1.367 and the “logFC of PIM2 (Q9P1W9)” value ([9]; Experiment wp017) was −0.4936. For the same molecule, the logFC ([9]; PIM2 (Q9P1W9), experiment wp017) was −0.4936, the “logFC CSNK1D” value ([10]; Accession P48730-1, experiment wp017, direction down) was −0.7788 and the “logFC of CSNK1D (P48730-1)” value ([10]; Experiment wp017) was −0.7788. The logFC [11] was −0.4833 and the “logFC GSK3A” value [11] was −0.4833.
